Reference: patent US7566713B2, “Immuno inhibitory heterocyclic compounds” (Medigene Limited, priority 2004, dated 2009)
pEC50: −log10 of the molar value.

Molecular target: T1, CD80-CD28 interaction (Homo sapiens, UniProt P33681)
T1 sequence (P33681 35-242 limits assumed): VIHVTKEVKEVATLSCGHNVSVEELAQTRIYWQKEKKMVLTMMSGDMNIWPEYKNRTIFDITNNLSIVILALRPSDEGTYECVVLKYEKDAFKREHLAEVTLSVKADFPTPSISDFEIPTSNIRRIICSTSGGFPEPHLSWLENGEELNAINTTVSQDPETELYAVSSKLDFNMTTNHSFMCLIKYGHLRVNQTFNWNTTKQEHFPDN
Assay: cell free Homogenous Time Resolved Fluorescence (TRFret) assay, inhibition of the CD80-CD28 interaction
Format: binding
Details: HTRF assay; concentration series 100 μM-1.7 nM; 4 hours at room temperature
Description: The examples described above were tested in a cell free Homogenous Time Resolved Fluorescence (TRFret) assay to determine their activity as inhibitors of the CD80-CD28 interaction.
In the assay, europium and allophycocyanin (APC) are associated with CD28 and CD80 indirectly (through antibody linkers) to form a complex, which brings the europium and APC into close proximity to generate a signal. The complex comprises the following six proteins: fluorescent label 1, linker antibody 1, CD28 fusion protein, CD80 fusion protein, linker antibody 2, and fluorescent label 2. The table below describes these reagents in greater detail.
On formation of the complex, europium and APC are brought into proximity and a signal is generated.
Non-specific interaction was measured by substituting a mouse Fab fragment (C215) for the CD80 mouse Fab fragment fusion protein (1.9 μg/ml). The assay was carried out in black 384 well plates in a final volume of 30 μl. Assay buffer: 50 mM Tris-HCl, 150 mM NaCl pH7.8, containing 0.1% BSA (w/v) added just prior to use.
Compounds were added to the above reagents in a concentration series ranging between 100 μM-1.7 nM. The reaction was incubated for 4 hours at room temperature. Dual measurements were made using a Wallac Victor 1420 Multilabel Counter. First measurement: excitation 340 nm, emission 665 nm, delay 50 μs, window time 200 μs. second measurement: excitation 340 nm, emission 615 nm, delay 50 μs, window time 200 μs. Counts were automatically corrected for fluorescence crossover, quenching and background.

SMILES | pEC50
O=C(O)c1ccc(-n2[nH]c3c4c(nnc3c2=O)CCCC4)cc1 [Example 1] | < 5.00
O=C(NCCCNC1CCCCC1)c1ccc(-n2[nH]c3c4c(nnc3c2=O)CCCC4)cc1 [Example 4, N-(3-Cyclohexylamino-propyl)-4-(3-oxo-1 ,3,6,7,8,9-hexahydro-pyrazolo[4,3-c]cinnolin-2-yl)-benzamide] | 7.00
O=C(NCCCCN1CCCC1)c1ccc(-n2[nH]c3c4c(nnc3c2=O)CCCC4)cc1 [Example 5, 4-(3-Oxo-1,3,6,7,8,9-hexahydro-pyrazolo[4,3-c]cinnolin-2-yl)-N-(4-pyrrolidin-1-yl-butyl)-benzamide] | 7.22
CN1C(C)(C)CC(NC(=O)c2ccc(-n3[nH]c4c5c(nnc4c3=O)CCCC5)cc2)CC1(C)C [Example 6, 4-(3-Oxo-1,3,6,7,8,9-hexahydro-pyrazolo[4,3-c]cinnolin-2-yl)-N-(1,2,2,6,6-pentamethyl-piperidin-4-yl)-benzamide] | 7.03

The remaining lines, values ahead:

pEC50 | SMILES
7.20 | CN(C)CCCNC(=O)c1ccc(-n2[nH]c3c4c(nnc3c2=O)CCCC4)cc1 [Example 2, N-(3-Dimethylamino-propyl)-4-(3-oxo-1,3,6,7,8,9-hexahydro-pyrazolo[4,3-c]cinnolin-2-yl)-benzamide]
6.10 | O=C(NCC(F)F)c1ccc(-n2[nH]c3c4c(nnc3c2=O)CCCC4)cc1 [Example 3, N-(2,2-Difluoro-ethyl)-4-(3-oxo-1 ,3,6,7,8,9-hexahydro-pyrazolo[4,3-c]cinnolin-2-yl)-benzamide]
